Experimental data taken from patent US11026972B2, “Methods for generating macrophages with enhanced cancer phagocytosis” (Georgia State University Research Foundation, Inc., priority 2016, dated 2021).

Assays:
[1] = test system: SIRPα^−/− and CD47^−/− mice; test: Acute anemia and splenomegaly in mice deficient of CD47-SIRPα-mediated inhibition under inflammatory conditions; type: in vivo, mouse
Text: FIGS. 1A-1K illustrate our assessment of acute anemia in mice deficient of CD47-SIRPα-mediated inhibition under inflammatory conditions. FIG. 1A includes a schematic drawing of a wild type (WT) and targeted allele of SIRPα (“SIRPα”) and data related to the generation of SIRPα “knock out” (KO) mice. […] Western blot (WB) analysis confirmed the depletion of SIRPα (˜120 kDa) protein in bone marrow leukocytes from SIRPα^−/− mice. FIG. 1B includes a photograph of intestinal tissue and a line graph charting the change in body weight of mice in which colitis had been induced by treatment with 1% or 2% DSS. […] FIGS. 1C and 1D include data related to acute anemia and splenomegaly developed in SIRPα^−/− mice with colitis. WT mice and SIRPα^−/− mice treated with DSS (2% DSS for WT and 1% DSS for SIRPα^−/−) for 10 days were analyzed for the presence of […] (FIG. 1C) and the content of hemoglobin in peripheral blood (FIG. 1D). FIG. 1E includes a panel of photomicrographs in which hematoxylin and eosin (H&E) was used to stain sections of spleens from WT and SIRPα^−/− mice treated with 2% and 1% DSS for 10 days. The bar graph of FIG. 1E illustrates the hemoglobin content in the spleens of WT and SIRPα^−/− mice treated with water or DSS. FIG. 1F is a pair of line graphs showing the time course over which anemia developed in SIRPα^−/− mice when colitis was induced with DSS and the levels of IL-17 in the serum over that same period of time. FIG. 1G is a diagram showing that IL-17 neutralization ameliorates anemia and splenomegaly in SIRPα^−/− mice with colitis. An anti-IL-17 antibody (10 μg, i.v.) was given on days 6 and 8 (arrows) during DSS-induction of colitis. FIG. 1H is a diagram showing that IL-17-containing colitic serum induces acute anemia in SIRPα^−/− mice. Serum samples collected from healthy (Ctl.) and colitic WT mice (2% DSS, 10 d) were administered to healthy SIRPα^−/− mice (i.v., 3×, arrows) with or without an anti-IL-17 antibody. FIGS. 1I and 1J are illustrative graphs showing that IL-17 directly induces acute anemia and splenomegaly in SIRPα^−/− mice and Cd47^−/− mice. Healthy mice were given recombinant IL-17 (10 μg/kg, i.v.) on days 1 and 3 (arrows, FIG. 1J); anemia and splenomegaly were analyzed on day 5 (FIG. 1I) or in a time course manner (FIG. 1J). FIG. 1K includes diagrams showing that acute anemia and splenomegaly in SIRPα^−/− and Cd47^−/− mice under zymosan-peritonitis (3×, every other day), IL-6 administration ([…], i.v.), LPS (0.25 mg/kg, i.p.), and CFA (1×, s.c.) administrations. Error bars are ±SEM **P<0.01, ***P<0.001 vs. control or the beginning time point. Data presented in each panel represent at least three independent experiments with n≥4, if applicable.
Hemoglobin assay: To assay blood hemoglobin, 10 μl of whole blood were obtained from the tail vein followed by lysis in 1 ml distilled water. After centrifugation (13,000 rpm, 30 min), the hemoglobin-containing supernatants were collected and measured for the optical density at the wavelength of 540 nm.
Animal inflammation models: To induce peritonitis, mice (6-8 wk, 20-22 g) were intraperitoneally injected with 0.5 mg zymosan A (Sigma) in 0.5 ml sterile PBS followed by euthanasia at 2, 4, 6 and 8 hours. […] The colitic condition was then assessed by observing diarrhea, measuring body weight loss, increases of inflammatory cytokines, the shortage of the large intestine and intestinal tissue analyses (after euthanasia). […]

SIRPα [2] = conditions: following LPS stimulation; cited from earlier work
SIRPα [3] = test: SIRPα immunoprecipitation and WB detection of SIRPα ITIM phosphorylation and SHP-1 association; type: cell-based, mouse; conditions: WT macrophages after LPS or IL-17 treatment
Method: FIGS. 4A-4E include data related to our experiments on macrophage phagocytic plasticity. FIG. 4A is a panel of illustrative line graphs showing that IL-10 inhibits macrophage phagocytosis toward “self.” PEMs were treated with LPS and activating cytokines along with various concentrations of IL-10 before testing their ability to phagocytose RBCs. FIG. 4B illustrates the phagocytic plasticity of WT red pulp macrophages. […] Treatments of cultured macrophages with LPS and IL-17 re-elicited their phagocytosis toward RBCs. […] Error bars are ±SEM. ***P<0.001 vs. freshly isolated splenic macrophages. FIG. 4D includes microscopic images of RBC phagocytosis by LPS- and IL-17-treated splenic macrophages. […] WT PEMs treated with LPS or IL-17 were further treated with Cd47^+ RBCs or Cd47-AP (10 min, 37° C.) followed by cell lysis, SIRPα immunoprecipitation, and WB detection of SIRPα phosphorylation (SIRPα^pY) and SHP-1 association. Data presented in each panel represent at least three independent experiments with n≥4, if applicable.
FIGS. 5A-5H include data related to our experiments on the role of Syk in phagocytic activation. […] PEMs were treated with LPS and cytokines in the presence of various inhibitors. After washing, inhibitor-free macrophages were tested for phagocytosis toward RBCs. […] PEMs treated with LPS and activating cytokines, or together with IL-10, were tested for total Syk and phosphorylated Syk (Syk^pY, specific at Y519/520). FIG. 5D describes PMA-induced macrophages phagocytosis toward RBCs. WT and SIRPα^−/− PEMs were treated with PMA (37° C., 30 min) before testing phagocytosis toward RBCs. FIG. 5E is a schematic depiction of PKC-Syk-mediated macrophage phagocytic activation toward self. […] Left: Inhibition of Syk by piceatannol and R406 prevented PMA-induced phagocytic activation. […] Error bars are ±SEM. ***P<0.001 vs. the respective controls. […] LPS-treated WT PEMs were further briefly treated with pervanadate before testing for phagocytosis toward RBCs. Error bars are ±SEM. ***P<0.001 vs. the respective controls. […]

Molecule | anemia and splenomegaly ([1]; SIRPα^−/− and CD47^−/− mice, zymosan 3 times every other day, IL-6 2×10 μg/kg i.v., LPS 0.25 mg/kg i.p., CFA s.c.) | SIRPα expression in macrophages (SIRPα [2]) | SIRPα ITIM phosphorylation and SHP-1 association (SIRPα [3]) | acute anemia and splenomegaly ([1]; CD47^−/− mice, IL-17 injection) | acute anemia and splenomegaly ([1]; healthy SIRPα^−/− mice, 2×10 μg/kg, i.v.)
lipopolysaccharide [LPS] | induced anemia and splenomegaly | decreased | a level of SIRPα ITIM phosphorylation and SHP-1 association even in the absence of extracellular CD47 ligation |  | 
IL-17: recombinant murine cytokine interleukin IL-17 (also known as IL-17A), PeproTech (protein, UniProt Q62386 26-158, looked up) Interleukin-17A: AAIIPQSSACPNTEAKDFLQNVKVNLKVFNSLGAKVSSRRPSDYLNRSTSPWTLHRNEDPDRYPSVIWEAQCRHQRCVNAEGKLDHHMNSVLIQQEILVLKREPESCPFTFRVEKMLVGVGCTCVASIVRQAA |  |  | a level of SIRPα ITIM phosphorylation and SHP-1 association even in the absence of extracellular CD47 ligation | induced acute anemia and splenomegaly | directly induced acute anemia and splenomegaly
